Data from article PMC8351955, “Targeting Mycobacterium tuberculosis response to environmental cues for the development of effective antitubercular drugs” (PLoS Biology, 2021).
Several values for one entry are separate records, joined by “and”; a condition that tells them apart may be missing. Equal entries are not always repeated. Where two headings read alike, the source gives them in different places.

Key:
[1] = system: Mtb; assay: Mtb growth assay in cholesterol medium (OD600); details: for OD600: Fig. 2G
Description: (§1) Bacterial growth was tracked by measuring OD600 every 3 days for 12 days. […] Bacterial growth was tracked by measurement of OD600 every 3 days over 12 days.

[2] = system: Mtb growth in J774 macrophage-like cells; assay: J774 infection in 96-well plates, mKO fluorescence 6 days post-infection; type: cell-based, Mycobacterium tuberculosis; details: for % Growth: Fig. 2D, DMSO = 100
Experimental: For J774 infection in 96-well plates, 1.8 × 10^5 J774 cells were seeded per well in 180 μl of J774 infection media 1 day prior to infection. On the day of the assay, log-phase Mtb constitutively expressing mKO were pelleted and resuspended in 1 ml basal uptake buffer, passed 6× through a tuberculin syringe with a 25 G × 5/8″ needle, then resuspended in J774 infection media to a final OD600 = 0.2. Media was removed from 96-well plate containing the J774 cells, with 140 μl of fresh J774 infection media added back to each well. A volume of 40 μl of the Mtb suspension at OD600 = 0.2 was added to each well, followed by addition of appropriate concentration of compound or DMSO in a 20-μl final volume in J774 infection media (compound final concentration 10 μM, rifampicin final concentration 5 μM, DMSO final concentration 0.1%/well). Bacterial mKO fluorescence was read immediately after infection using a Biotek Synergy Neo2 microplate reader (bottom read monochromator, excitation 543/10 nm, emission 565/10 nm), and again 6 days post-infection. Plates were kept in humidified ziplock bags in a 37°C, 5% CO2 incubator. mKO fluorescence in DMSO-treated control samples were defined as 100% growth, and fluorescence observed in treatment conditions calculated as a percentage from that set value.

[3] = system: Mtb; assay: Mtb growth assay in standard 7H9 medium (OD600); details: Fig. 2F
Description: as §1

[4] = system: CDC1551(rv2390c′::GFP) reporter Mtb strain; details: for Normalized % induction: Fig. 2C, DMSO = 100
[5] = system: CDC1551(rv1405c′::GFP) reporter Mtb strain; assay: microbe, parasite or virus in culture; type: cell-based, Mycobacterium tuberculosis; details: for activity at 10 µM: read-out: rv1405c'::GFP secondary assay NPA% at 10 µM compound; for activity at 20 µM: read-out: rv1405c'::GFP secondary assay NPA% at 20 µM compound
[6] = system: Mtb growth in J774 murine macrophage-like cells; assay: microbe, parasite or virus in culture; type: cell-based, Mycobacterium tuberculosis; details: Mycobacterium tuberculosis; for inhibition at 10 µM: read-out: J774 tertiary assay % inhibition compared to Rif at 10 µM compound
[7] = system: CDC1551(rv2390c′::GFP) reporter Mtb strain, response to high [Cl−]; assay: microbe, parasite or virus in culture; type: cell-based, Mycobacterium tuberculosis; details: for activity at 10 µM / activity at 20 µM: 144 h; for activity at 20 µM: read-out: rv2390c'::GFP validation assay NPA% at 20 µM compound
[8] = J774, 144 h, read-out: J774 tertiary assay % inhibition compared to Rif at 20 µM compound
[9] = Mycobacterium tuberculosis, pH 6.4, […], DMSO positive control = 100%, read-out: Primary screen rv2390c'::GFP NPA%
[10] = Mycobacterium tuberculosis, 10 µM, pH 6.4, 250 mM NaCl, 6 days, read-out: rv2390c'::GFP validation assay NPA% at 10 µM compound
[11] = Mycobacterium tuberculosis, pH 6.4, 250 mM NaCl, 6 days

CCSc1ncc(CN2CCN(c3nc4ccccc4s3)CC2)cn1 [JSF-4298, 2-(4-((2-(ethylthio)pyrimidin-5-yl)methyl)piperazin-1-yl)benzo[d]thiazole]
Inhibition of Mtb growth in cholesterol media ([1]; 10 μM, OD600 over 12 days): continuing to demonstrate the phenotypes seen with the parental C6 compound
OD600 ([1]; day 3, average): 0.06
OD600 ([1]; day 3, individual replicates): 0.06
OD600 ([1]; day 6, average): 0.09333
OD600 ([1]; day 6, individual replicates): 0.08 and 0.1 (2×)
OD600 ([1]; day 9, average): 0.1333
OD600 ([1]; day 9, individual replicates): 0.14 (2×) and 0.12
OD600 ([1]; day 12, average): 0.1533
OD600 ([1]; day 12, individual replicates): 0.16 (2×) and 0.14
Inhibition of Mtb growth in J774 cells ([2]; 10 μM, 6 days post-infection): continuing to demonstrate the phenotypes seen with the parental C6 compound
% Growth ([2]; average of 4 replicates): 72.2652%
% Growth ([2]; individual replicates): 65.6342% and 77.3722% and 76.7437% and 69.3109%
OD600 ([3]; day 3, average): 0.1867
OD600 ([3]; day 3, individual replicates): 0.2 and 0.18 (2×)
OD600 ([3]; day 6, average): 0.38
OD600 ([3]; day 6, individual replicates): 0.36 and 0.38 and 0.4
OD600 ([3]; day 9, average): 0.5067
OD600 ([3]; day 9, individual replicates): 0.5 (2×) and 0.52
OD600 ([3]; day 12, average): 0.6467
OD600 ([3]; day 12, individual replicates): 0.64 (2×) and 0.66
Normalized % induction ([4]; average of 3 replicates): 128.692%
Normalized % induction ([4]; individual replicates): 127.109% and 127.993% and 130.974%
Ability to increase rv2390c′::GFP reporter signal in high [Cl−] ([4]; pH 7): continuing to demonstrate the phenotypes seen with the parental C6 compound

N#Cc1nc(NC(=O)c2ccc(N3CCCC3)c(F)c2)[nH]c1C#N [RU-0274370, FC1=C(C=CC(=C1)C(=O)NC1=NC(C#N)=C(N1)C#N)N1CCCC1]
activity at 10 µM ([5]; Mycobacterium tuberculosis): 181 ± 7.8%
activity at 20 µM ([5]; Mycobacterium tuberculosis): 363 ± 8.7%
inhibition at 10 µM ([6]; J774, 144 h): 22.2 ± 0.2%
inhibition at 20 µM [6, 8]: 25.3 ± 4.1%
activity at 10 µM [7, 9]: 227%
activity at 10 µM [7, 10]: 143 ± 10%
activity at 20 µM [7, 11]: 268 ± 20.8%

O=C(Nc1ccc(OCC(F)(F)F)nc1)N1CCCCCCC1 [RU-0275323, FC(F)(F)COC1=NC=C(NC(=O)N2CCCCCCC2)C=C1]
rv1405c assay NPI at 10 uM ([5]; 10 uM): 111
rv1405c assay NPI at 20 uM ([5]; 20 uM): 112
IC50 ([5]; Mycobacterium tuberculosis, read-out: ShuminTan.MtbChloride.Secondary: IC50): < 0.0391 µM
activity at 10 µM ([5]; Mycobacterium tuberculosis): 111 ± 5.5%
activity at 20 µM ([5]; Mycobacterium tuberculosis): 112 ± 10.6%
inhibition at 20 µM ([6]; J774, read-out: %inhibition compared to Rif in J774 at 20 uM): 15.8%
IC50 ([6]; J774 dose response 0.039-20 µM, read-out: ShuminTan.Mtb.Validation.Macrophage: IC50): > 20 µM
validation NPI at 10 uM ([7]; 10 uM): 88.4
validation NPI at 20 uM ([7]; 20 uM): 51.1
activity at 10 µM [7, 9]: 45.1%
activity at 10 µM [7, 10]: 87.5 ± 8%
activity at 20 µM [7, 11]: 49.4 ± 7.1%
IC50 ([7]; Mycobacterium tuberculosis, read-out: ShuminTan.MtbChloride.Validation: IC50): 13 µM
ShuminTan.MtbChloride.Primary: NPI% ([7]; primary screen, Sheet2): 45.0537%

COc1ccc(Cl)c(NS(=O)(=O)c2cnc(Cl)n2C)c1 [RU-0278036, COC1=CC(NS(=O)(=O)C2=CN=C(Cl)N2C)=C(Cl)C=C1]
activity at 10 µM ([5]; Mycobacterium tuberculosis): 75.9 ± 12.9%
activity at 20 µM ([5]; Mycobacterium tuberculosis): 152 ± 19.9%
inhibition at 10 µM ([6]; J774, 144 h): 23.9 ± 12.9%
inhibition at 20 µM [6, 8]: 61.5 ± 2.6%
activity at 10 µM [7, 9]: 48.8%
activity at 10 µM [7, 10]: 87.6 ± 8%
activity at 20 µM [7, 11]: 50 ± 7.7%

CO[C@H]1/C=C/O[C@@]2(C)Oc3c(C)c(O)c4c(O)c(c(/C=N/N5CCN(C)CC5)c(O)c4c3C2=O)NC(=O)/C(C)=C\C=C\[C@H](C)[C@H](O)[C@@H](C)[C@@H](O)[C@@H](C)[C@H](OC(C)=O)[C@@H]1C [Rif, rifampicin, reference compound]
% growth of Mtb in J774 cells, average ([2]; 5 μM rifampicin, 6 days post-infection, DMSO = 100%, Fig 1H): 8.618%
% Growth ([2]; average of 4 replicates): 10.744%
% Growth ([2]; individual replicates): 10.4241% and 10.7119% and 11.5524% and 10.2878%
